The target of one data set is T1, Nitric oxide synthase 3 (Homo sapiens, UniProt P29474).
T1 sequence (P29474 whole entry): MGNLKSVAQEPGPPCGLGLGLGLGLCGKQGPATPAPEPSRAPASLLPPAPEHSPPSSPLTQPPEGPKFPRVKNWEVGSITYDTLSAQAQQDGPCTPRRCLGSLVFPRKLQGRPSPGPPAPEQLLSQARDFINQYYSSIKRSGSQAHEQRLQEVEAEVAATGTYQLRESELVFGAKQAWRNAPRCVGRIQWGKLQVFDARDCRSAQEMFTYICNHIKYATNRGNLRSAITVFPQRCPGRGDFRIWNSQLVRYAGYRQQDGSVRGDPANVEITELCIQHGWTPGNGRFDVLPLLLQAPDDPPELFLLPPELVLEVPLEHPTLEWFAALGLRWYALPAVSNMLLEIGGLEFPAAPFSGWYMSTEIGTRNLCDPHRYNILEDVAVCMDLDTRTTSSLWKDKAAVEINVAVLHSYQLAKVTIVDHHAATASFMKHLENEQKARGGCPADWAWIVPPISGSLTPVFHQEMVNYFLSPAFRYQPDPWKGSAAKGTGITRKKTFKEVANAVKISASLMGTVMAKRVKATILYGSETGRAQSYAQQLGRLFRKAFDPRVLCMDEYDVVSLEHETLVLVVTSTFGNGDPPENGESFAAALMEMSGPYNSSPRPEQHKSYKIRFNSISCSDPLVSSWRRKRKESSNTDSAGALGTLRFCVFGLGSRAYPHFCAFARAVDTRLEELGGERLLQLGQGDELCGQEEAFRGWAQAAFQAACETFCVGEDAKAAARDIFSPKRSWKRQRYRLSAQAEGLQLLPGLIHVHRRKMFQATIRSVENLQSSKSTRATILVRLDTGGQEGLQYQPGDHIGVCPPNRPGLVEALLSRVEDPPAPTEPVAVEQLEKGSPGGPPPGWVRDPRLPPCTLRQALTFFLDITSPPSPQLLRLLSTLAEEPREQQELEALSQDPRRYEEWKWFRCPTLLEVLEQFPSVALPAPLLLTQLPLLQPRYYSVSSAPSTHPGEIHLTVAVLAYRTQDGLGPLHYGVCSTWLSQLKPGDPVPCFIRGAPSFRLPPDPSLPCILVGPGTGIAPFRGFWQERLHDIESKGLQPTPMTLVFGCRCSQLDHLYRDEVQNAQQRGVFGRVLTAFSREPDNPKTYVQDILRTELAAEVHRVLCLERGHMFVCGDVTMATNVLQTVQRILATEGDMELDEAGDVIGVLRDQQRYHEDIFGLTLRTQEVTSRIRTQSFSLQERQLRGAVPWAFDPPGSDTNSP
Briefly: Inhibition of human eNOS assessed as inhibition of [3H]L-arginine to [3H]L-citrulline conversion by scintillation counting.

A further data set has as its target Nitric oxide synthase 1 (Homo sapiens, UniProt P29475). Put plainly: Inhibition of human nNOS assessed as inhibition of [3H]L-arginine to [3H]L-citrulline conversion by scintillation counting.
In data set [1] the target is Nitric oxide synthase, inducible (Homo sapiens, UniProt P35228). Briefly: Inhibition of human iNOS assessed as inhibition of [3H]L-arginine to [3H]L-citrulline conversion by scintillation counting.
Chain of Nitric oxide synthase, inducible (P35228 whole entry): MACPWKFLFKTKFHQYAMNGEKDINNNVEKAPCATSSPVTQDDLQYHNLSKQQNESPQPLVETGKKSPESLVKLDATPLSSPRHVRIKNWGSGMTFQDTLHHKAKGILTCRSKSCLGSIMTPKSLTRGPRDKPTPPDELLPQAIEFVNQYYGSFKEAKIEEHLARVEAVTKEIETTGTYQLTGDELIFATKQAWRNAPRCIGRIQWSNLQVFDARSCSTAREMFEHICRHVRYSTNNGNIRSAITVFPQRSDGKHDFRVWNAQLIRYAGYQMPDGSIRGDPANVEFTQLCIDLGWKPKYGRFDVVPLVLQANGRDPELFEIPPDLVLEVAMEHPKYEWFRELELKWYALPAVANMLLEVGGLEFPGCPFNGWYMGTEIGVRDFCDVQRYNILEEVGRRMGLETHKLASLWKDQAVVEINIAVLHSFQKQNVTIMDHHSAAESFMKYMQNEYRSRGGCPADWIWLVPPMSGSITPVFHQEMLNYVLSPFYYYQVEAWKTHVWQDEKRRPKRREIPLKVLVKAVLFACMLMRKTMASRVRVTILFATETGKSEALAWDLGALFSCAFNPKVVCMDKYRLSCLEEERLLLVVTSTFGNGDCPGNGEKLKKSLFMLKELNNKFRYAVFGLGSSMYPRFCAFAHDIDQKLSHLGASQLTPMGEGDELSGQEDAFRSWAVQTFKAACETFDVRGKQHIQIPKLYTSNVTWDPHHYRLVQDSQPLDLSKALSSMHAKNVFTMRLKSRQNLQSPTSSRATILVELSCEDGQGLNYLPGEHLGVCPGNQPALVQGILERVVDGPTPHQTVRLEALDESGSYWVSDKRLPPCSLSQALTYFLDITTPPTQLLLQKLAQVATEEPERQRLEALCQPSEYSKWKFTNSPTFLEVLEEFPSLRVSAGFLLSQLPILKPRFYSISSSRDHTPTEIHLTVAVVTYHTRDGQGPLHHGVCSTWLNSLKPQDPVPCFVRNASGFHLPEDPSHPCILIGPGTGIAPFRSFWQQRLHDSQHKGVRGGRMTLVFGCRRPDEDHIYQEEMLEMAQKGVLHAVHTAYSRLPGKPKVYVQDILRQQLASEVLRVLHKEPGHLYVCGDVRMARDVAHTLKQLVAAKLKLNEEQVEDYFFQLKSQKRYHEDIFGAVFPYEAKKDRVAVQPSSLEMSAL
A short description of data set [2]: Cmax in rat. Format: ADME, organism-based. To be noted: in vivo.
The nature of data set [3]: Absolute oral bioavailability in rat. Format: ADME, organism-based. Particulars: in vivo.
The target in another data set is Cytochrome P450 2C9 (Homo sapiens, UniProt P11712). Put plainly: Inhibition of CYP2C9. Format: ADME.
Chain of Cytochrome P450 2C9 (P11712 whole entry): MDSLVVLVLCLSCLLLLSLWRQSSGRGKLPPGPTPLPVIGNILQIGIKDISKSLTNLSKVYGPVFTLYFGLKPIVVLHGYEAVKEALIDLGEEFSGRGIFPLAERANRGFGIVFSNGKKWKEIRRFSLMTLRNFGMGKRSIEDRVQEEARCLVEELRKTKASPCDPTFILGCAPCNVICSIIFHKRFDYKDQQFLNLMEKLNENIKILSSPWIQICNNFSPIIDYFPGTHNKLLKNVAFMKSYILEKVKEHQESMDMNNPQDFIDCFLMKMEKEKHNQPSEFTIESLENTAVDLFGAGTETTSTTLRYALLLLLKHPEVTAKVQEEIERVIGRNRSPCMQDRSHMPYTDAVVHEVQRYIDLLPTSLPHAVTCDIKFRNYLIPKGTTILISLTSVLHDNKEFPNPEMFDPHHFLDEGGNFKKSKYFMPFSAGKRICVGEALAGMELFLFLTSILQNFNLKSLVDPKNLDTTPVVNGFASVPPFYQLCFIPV
Data set [4] in a line: Clearance in rat. The format is ADME, organism-based. Particulars: in vivo.
Data set [5] has as its target T2, Nitric oxide synthase, inducible (Mus musculus) (UniProt P29477).
T2 sequence (whole entry): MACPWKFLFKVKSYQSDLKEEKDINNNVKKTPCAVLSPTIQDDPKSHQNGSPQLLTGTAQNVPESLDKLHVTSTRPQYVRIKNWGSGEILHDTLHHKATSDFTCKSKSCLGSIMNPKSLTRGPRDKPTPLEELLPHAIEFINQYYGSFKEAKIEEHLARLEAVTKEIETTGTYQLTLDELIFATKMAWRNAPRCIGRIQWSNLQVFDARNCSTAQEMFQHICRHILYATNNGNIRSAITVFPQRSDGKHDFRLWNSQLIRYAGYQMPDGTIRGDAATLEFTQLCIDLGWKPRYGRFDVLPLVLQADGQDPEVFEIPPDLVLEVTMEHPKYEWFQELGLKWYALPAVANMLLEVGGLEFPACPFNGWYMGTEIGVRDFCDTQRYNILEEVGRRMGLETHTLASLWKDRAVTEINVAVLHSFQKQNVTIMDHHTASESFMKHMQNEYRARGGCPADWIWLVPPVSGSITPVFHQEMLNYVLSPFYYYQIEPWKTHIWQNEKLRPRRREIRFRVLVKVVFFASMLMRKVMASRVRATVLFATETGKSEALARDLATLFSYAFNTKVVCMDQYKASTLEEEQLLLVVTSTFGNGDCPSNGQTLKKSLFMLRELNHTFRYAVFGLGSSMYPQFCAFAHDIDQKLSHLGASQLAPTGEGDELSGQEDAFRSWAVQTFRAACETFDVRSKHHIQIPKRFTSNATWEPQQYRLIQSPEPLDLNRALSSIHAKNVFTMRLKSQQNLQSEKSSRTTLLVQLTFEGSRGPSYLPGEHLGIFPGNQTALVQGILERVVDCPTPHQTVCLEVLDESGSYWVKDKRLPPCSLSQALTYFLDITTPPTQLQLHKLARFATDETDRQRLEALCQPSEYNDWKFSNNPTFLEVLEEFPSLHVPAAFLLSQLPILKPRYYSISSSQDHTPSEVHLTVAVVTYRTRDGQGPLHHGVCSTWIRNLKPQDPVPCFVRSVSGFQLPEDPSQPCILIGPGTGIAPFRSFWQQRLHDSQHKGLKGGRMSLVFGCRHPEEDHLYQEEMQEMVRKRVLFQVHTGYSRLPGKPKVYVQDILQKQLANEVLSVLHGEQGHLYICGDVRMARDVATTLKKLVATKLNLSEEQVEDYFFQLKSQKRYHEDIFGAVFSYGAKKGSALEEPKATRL
Briefly: Binding affinity to mouse iNOSox L-arginine binding site by X-ray crystallography.

A short description of data set [6]: Inhibition of CYP. The format is ADME.

The source made the active and inactive calls. No cut-off for these calls is given here.

Chain of Nitric oxide synthase 1 (P29475 whole entry): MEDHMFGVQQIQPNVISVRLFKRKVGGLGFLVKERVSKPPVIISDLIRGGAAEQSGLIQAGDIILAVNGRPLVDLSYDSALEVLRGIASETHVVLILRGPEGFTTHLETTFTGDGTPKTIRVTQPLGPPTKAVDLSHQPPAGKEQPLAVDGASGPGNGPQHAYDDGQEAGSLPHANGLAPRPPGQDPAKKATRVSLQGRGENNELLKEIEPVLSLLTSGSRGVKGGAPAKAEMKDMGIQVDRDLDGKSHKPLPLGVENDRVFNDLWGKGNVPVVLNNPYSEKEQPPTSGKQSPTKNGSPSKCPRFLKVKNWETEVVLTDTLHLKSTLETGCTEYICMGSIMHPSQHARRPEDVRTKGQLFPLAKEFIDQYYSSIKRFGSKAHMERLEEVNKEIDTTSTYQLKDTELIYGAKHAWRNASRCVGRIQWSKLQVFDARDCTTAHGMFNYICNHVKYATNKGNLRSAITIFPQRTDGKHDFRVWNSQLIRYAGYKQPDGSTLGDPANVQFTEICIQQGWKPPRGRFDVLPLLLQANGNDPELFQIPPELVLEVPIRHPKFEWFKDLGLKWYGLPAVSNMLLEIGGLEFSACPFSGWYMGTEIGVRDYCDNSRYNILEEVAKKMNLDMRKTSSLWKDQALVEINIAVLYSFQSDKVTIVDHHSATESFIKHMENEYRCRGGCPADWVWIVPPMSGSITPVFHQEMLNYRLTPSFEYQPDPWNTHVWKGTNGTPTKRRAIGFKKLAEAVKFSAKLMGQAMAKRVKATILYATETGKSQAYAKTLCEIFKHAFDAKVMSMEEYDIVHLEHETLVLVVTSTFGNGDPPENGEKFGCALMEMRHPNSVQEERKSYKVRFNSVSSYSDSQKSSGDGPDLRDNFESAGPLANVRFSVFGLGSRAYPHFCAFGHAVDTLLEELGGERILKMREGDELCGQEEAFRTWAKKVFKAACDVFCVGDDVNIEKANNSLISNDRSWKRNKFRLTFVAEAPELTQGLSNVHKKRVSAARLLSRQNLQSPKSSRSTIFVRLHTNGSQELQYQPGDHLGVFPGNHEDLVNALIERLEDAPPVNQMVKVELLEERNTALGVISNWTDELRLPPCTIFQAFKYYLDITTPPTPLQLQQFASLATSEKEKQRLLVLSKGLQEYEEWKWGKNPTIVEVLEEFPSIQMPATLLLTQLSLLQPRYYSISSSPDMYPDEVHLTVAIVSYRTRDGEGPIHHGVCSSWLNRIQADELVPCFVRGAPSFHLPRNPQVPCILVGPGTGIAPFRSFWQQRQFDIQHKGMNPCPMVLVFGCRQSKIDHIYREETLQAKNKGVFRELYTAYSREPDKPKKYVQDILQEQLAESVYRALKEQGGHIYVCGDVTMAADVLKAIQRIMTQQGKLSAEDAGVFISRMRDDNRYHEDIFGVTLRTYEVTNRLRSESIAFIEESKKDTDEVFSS

Regarding `COc1ccnc(CCc2nc3ccc(OC)nc3[nH]2)c1`, the IC50 (commonly the concentration that gives 50% inhibition) was 100 µM at Nitric oxide synthase 3, 26.3 µM on Nitric oxide synthase 1 and 0.38 µM in [1].
`COc1ccnc(CSC)c1`: the IC50 is 1.07 µM on Nitric oxide synthase 3, 0.447 µM at Nitric oxide synthase 1 and 0.155 µM in data set [1].
`COc1ccnc(CCc2nc3ncccc3[nH]2)c1`: the concentration for half-maximal inhibition (IC50) is 112 µM at Nitric oxide synthase 3, 13.8 µM at Nitric oxide synthase 1 and 3.16 µM on Cytochrome P450 2C9. Moreover, the Cmax (as a rule, the maximum level reached in the sampled fluid or tissue) in [2] came to 2240 ng/mL. Besides, the bioavailability (as a rule, the share of a dose that reaches the circulation, judged against a reference dose that is usually intravenous) in [3] came out at 48%. Besides, in [4], the clearance (usually the volume of plasma or blood freed of the substance per unit of time) is 36.8 mL/min/kg.
As for `COc1ccnc(CCc2nc3cc(Br)cnc3[nH]2)c1`, the concentration for half-maximal inhibition (IC50) was 87.1 µM on Nitric oxide synthase 3, 8.32 µM at Nitric oxide synthase 1 and 0.186 µM in data set [1].
As for `COc1ccnc(CCc2nc3c(OCCc4ccccc4)ccnc3[nH]2)c1`, the IC50 at Nitric oxide synthase 3 is 66.1 µM; on Nitric oxide synthase 1, 13.8 µM; in [1] it was 0.724 µM.
For the compound `COCCOc1ccnc2[nH]c(CCc3cc(OC)ccn3)nc12`, the IC50 on Nitric oxide synthase 3 is 204 µM; on Nitric oxide synthase 1, 123 µM; in data set [1] it was 0.513 µM.
Taken in the same sequence, the figures for `COc1ccnc(CCc2nc3c(OC)ccnc3[nH]2)c1` were 204 µM, 58.9 µM and 0.776 µM.
Regarding `COc1ccnc(CSc2nc3cccnc3[nH]2)c1`, the IC50 at Nitric oxide synthase 3 was 53.7 µM; at Nitric oxide synthase 1 it was 3.39 µM; in [1], 0.115 µM.
Taken in the same sequence, the figures for `COc1ccnc(CSC)c1OC` were more than 100 µM, more than 100 µM and more than 100 µM.
In the case of `COc1ccnc(CCc2nc3cccnc3[nH]2)c1`, in [5], the result was Active. The pIC50 (usually the negative decadic logarithm of the IC50, by convention in mol/L) in data set [6] was less than 4.
As for `CCCCc1cnc2[nH]c(CCc3cc(OC)ccn3)nc2c1`, the half-maximal inhibitory concentration (IC50) on Nitric oxide synthase 3 was 87.1 µM; on Nitric oxide synthase 1, 1.91 µM; in [1], 0.055 µM.
Taken in the same sequence, the figures for `COc1ccnc(CCc2nc3c(C)ccnc3[nH]2)c1` were 45.7 µM, 18.6 µM and 0.145 µM.
In the case of `COc1ccnc(CCc2nc3cc(-c4ccccc4)cnc3[nH]2)c1`, the IC50 at Nitric oxide synthase 3 was 18.2 µM; on Nitric oxide synthase 1 it was 1.2 µM.
Regarding `COc1ccnc(CCc2nc3c(C)cc(C)nc3[nH]2)c1`, the IC50 is more than 100 µM on Nitric oxide synthase 3, 12.6 µM at Nitric oxide synthase 1 and 2.29 µM in [1].
Taken in the same sequence, the figures for `COc1cnc(CSC)cc1OC` were more than 100 µM, more than 100 µM and more than 100 µM.
Consider `C[C@H]1CC(=N)N[C@@H]2[C@H](Cl)[C@@H]21`, for which the inhibition constant (Ki) (in general, the dissociation constant of the complex between target and ligand, obtained from inhibition or displacement) on Nitric oxide synthase 3 was 0.0186 µM; in data set [1] it was 0.00186 µM.
In the case of `COc1ccnc(CSc2nc3ccncc3[nH]2)c1`, the IC50 is more than 100 µM on Nitric oxide synthase 3, more than 100 µM on Nitric oxide synthase 1 and 49 µM in data set [1].
As for `COc1ccnc(CSc2nc3ccccc3[nH]2)c1`, the IC50 is 26.3 µM at Nitric oxide synthase 3, 26.9 µM at Nitric oxide synthase 1 and 10.7 µM in data set [1].
For the compound `CC(=N)NCCCC[C@H](N)C(=O)O` [L-NIL], the 50% inhibitory concentration (IC50) at Nitric oxide synthase 3 was more than 100 µM; in data set [1], 4.68 µM.
Regarding `COc1ccnc(NC2CCN(C(=O)c3ccc(C#N)nc3)CC2)c1`, the half-inhibitory concentration (IC50) at Nitric oxide synthase 3 was more than 100 µM; on Nitric oxide synthase 1 it was 6.61 µM; in [1], 0.0708 µM.
Turning to `CC(=N)NCCCC[C@H](N)C(=O)Nc1nnn[nH]1`, the half-maximal inhibitory concentration (IC50) (at Nitric oxide synthase 3; at Nitric oxide synthase 1; in [1]) was more than 100 µM in each case.

The values above are taken from ChEMBL document CHEMBL1799930, “Novel nanomolar imidazo[4,5-b]pyridines as selective nitric oxide synthase (iNOS) inhibitors: SAR and structural insights” (Bioorg Med Chem Lett, 2011).
